Measured values taken from article PMC7307906, “Macrocyclic Modalities Combining Peptide Epitopes and Natural Product Fragments” (Journal of the American Chemical Society, 2020).

Columns and labels:
[1] = target: T1, human MC4R (Homo sapiens, UniProt P32245); assay: Melanocortin receptor radioligand binding (SPA, [125I]-NDP-α-MSH displacement), MC4R; conditions: competitive binding, mean (± SEM) of at least three independent experiments, read-out: IC50 hMC4R binding
T1 construct: expressed in transfected cells

[2] = target: T1, human MC4R; assay: cAMP assay (LANCE) in T-Rex-293 cells expressing MC4R; type: cell-based; conditions: cAMP assay; mean (± SEM) of at least three independent experiments; read-out: EC50 hMC4R cAMP
[3] = target: hMC1−5R; assay: Melanocortin receptor cAMP assay, result stated for all receptors together; type: cell-based, human; conditions: one bound printed for all receptors
From the text: Example concentration response curves for selected PepNats in MC1R, MC3R, MC4R, MC5R radioligand binding assays and MC1R, MC3R, MC4R cAMP assays. Responses were normalized to reference agonist NDP -α-MSH and presented as % effect of control, with full competition in binding defined as -100% and full agonism in cAMP assays defined as […]
binding assay. Threshold to define a compound as active was set to -30% in binding assays and 20% in cAMP assays respectively. Data are from at least three independent experiments and error bars represent ± Standard Error of the […]
% s p e c ific b in d in g o f
(1 picture or pasted object on this page, not shown here) […]
to the elution profile of the crude product . The relevant fractions containing the desired product were collected, analyzed by RP-HPLC-MS and accordingly pooled and lyophilized.
HRMS were obtained on a Thermo Scientific LTQ Fleet Orbitrap mass spectrometer coupled to an Accela HPLC-System (HPLC column: Hypersyl GOLD, 50 mm x 1 mm, particle size 1.9 μm) equipped with an electron spray ionization source (ESI). The mass detection was recorded in the range of […]
2) B) Biochemical Assays Materials and Methods
Surface Plasmon Resonance (SPR)
All SPR experiments were conducted on a Biacore T200, S200 or 8K instrument (GE Healthcare) at 20 °C using HBS-P+ as running buffer (GE Healthcare). […]

T1 sequence (P32245 whole entry): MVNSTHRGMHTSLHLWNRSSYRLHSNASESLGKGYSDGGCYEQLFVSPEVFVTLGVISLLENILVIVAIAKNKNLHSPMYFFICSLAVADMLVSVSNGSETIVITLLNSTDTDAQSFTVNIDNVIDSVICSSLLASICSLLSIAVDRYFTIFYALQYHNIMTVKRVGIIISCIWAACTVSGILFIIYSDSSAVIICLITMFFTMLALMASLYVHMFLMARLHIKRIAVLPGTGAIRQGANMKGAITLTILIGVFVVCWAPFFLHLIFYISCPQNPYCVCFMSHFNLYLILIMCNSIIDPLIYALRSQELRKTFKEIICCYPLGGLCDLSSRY

CN1C(=O)[C@H]2N[C@@H](c3ccc(cc3)C(=O)NCCCC[C@@H](C(=O)N[C@@H](Cc3ccc(O)cc3)C(N)=O)NC(=O)[C@H](CC(N)=O)NC(=O)[C@@H](Cc3ccccc3)NC(=O)[C@@H](Cc3ccccc3)NC(=O)[C@H](CCCNC(=N)N)NC(=O)[C@@H]1Cc1ccccc1)[C@H]1C(=O)N(c3ccccc3)C(=O)[C@H]12 [K1-minor, [II-FRffNK ]Y]
> 100 µM: IC50 [1] | EC50 [2] | EC50 [3]
